{"source": "patent US11865158B2", "about": "“Process and composition matter of nanoparticle formulation for systemic treatment of sepsis” (PURDUE RESEARCH FOUNDATION, priority 2019, dated 2024)", "key": {"J774a.1 macrophages": {"test_system": "J774a.1 macrophages", "assay": "Effect on cell membrane, SEM", "format": "cell-based", "conditions": "eq. to 150 μg/mL PMB, 12 h", "experimental": "Effect of PMB and D-TZP on cell membrane. The effect of D-TZP on J774A.1 cell membrane was monitored by two methods (scanning electron microscopy and confocal microscopy). For scanning electron microscopy, J774A.1 macrophages were plated in a 6-well plate at a density of 3×10^5 cells per well with 3 mL of complete medium. After overnight incubation at 37° C. in a 5% CO2 atmosphere, the cells were treated with either free PMB or D-TZP at a concentration equivalent to 150 μg/mL PMB for 12 h. The cells were centrifuged at 233 relative centrifugal force (rcf) for 3 min. The medium was removed, and 2.5% glutaraldehyde solution was added for fixation overnight at 4° C. The cells were then rinsed three times with water (5 min each) and incubated in 2% Osmium tetroxide for 1 h. After rinsing another three times with water (5 min each), the cells were dehydrated with a series of ethanol gradients (50%, 75%, 95%) for 10 minutes at each step. The dehydrated cells were rinsed with 100% ethanol three times for 10 minutes each time, stored in a 1:1 mixture of HMDS and ethanol in 1:1 for 30 min, and rinsed with 100% HMDS for 30 min twice. After overnight drying, the cells were placed on a carbon tape attached to an aluminum stud and coated with platinum for SEM analysis. The morphology of treated J774a.1 cells then was observed by a FEI NOVA NanoSEM scanning electron microscope (SEM). […]"}, "C57BL/6 male mice": {"test_system": "C57BL/6 male mice", "assay": "In vivo safety", "conditions": "dose exceeding its LD50", "experimental": "D-TZP was intraperitoneally (IP) or intravenously (IV) injected to C57BL/6 male mice at doses equivalent to as high as 40 mg/kg PMB and 10 mg/kg PMB, respectively, much greater than the known IP and IV LD50 values of free PMB (20 mg/kg for IP and 5 mg/kg for IV). […] Higher doses have not been tested; therefore, the maximum tolerated dose of D-TZP in each route could not be defined. […] The increased tolerated dose is consistent with the reduced in vitro toxicity of D-TZP.\nIn vivo safety. 6-10 week-old C57BL/6 male mice were used to evaluate the safety of D-TZP and TZP in comparison with free PMB. The treatment was administered by IP (2.5-40 mg/kg) or IV (3-10 mg/kg) injection. The body weight changes were monitored daily up to 1 week. For blood chemistry and histology analysis, blood and major organs were collected at 12 h post IV injection of vehicle (5% dextrose), free PMB, D-TZP, or TZP (all equivalent to 10 mg/kg PMB). Animals were sacrificed by CO2 asphyxiation. Blood was obtained by cardiac puncture. Major organs were fixed in 10% formalin, embedded in paraffin, sectioned, and stained with hematoxylin and eosin for histological evaluation. The samples were imaged with a Nikon 90i upright microscope. To evaluate the safety of multiple intravenous injections, 5 mg/kg PMB or 10 mg/kg PMB equivalent D-TZP was given every 2 days up to 4 times total with body weight monitoring over 2 weeks."}, "LPS-induced sepsis": {"test_system": "LPS-induced sepsis", "assay": "Therapeutic efficacy in LPS-induced endotoxemia (sepsis) model", "format": "in vivo, C57BL/6 mice", "conditions": "free PMB at the respective LD50 (20 mg/kg for IP and 5 mg/kg for IV)", "experimental": "The therapeutic efficacy of D-TZP was tested in a mouse model of sepsis. C57BL/6 male mice were given IP injection of 20 mg/kg LPS, which causes systemic inflammation similar to initial clinical features of sepsis. TZP or D-TZP was administered in three regimens:\nTherapeutic efficacy in LPS-induced endotoxemia model. 6-8 week-old C57BL/6 mice (male and female) were challenged with an intraperitoneal injection of 20 mg/kg LPS solution (5% dextrose) via 20G catheter (Exel International Disposable Safelet I.V.), which causes systemic inflammation similar to initial clinical features of sepsis^17,19. […] A vehicle control (5% dextrose) or an equivalent dose of free PMB were given in the same manner for comparison. […] Buprenorphine (0.05 mg/kg) was injected subcutaneously shortly after the treatment and every 2-12 h as the signs of discomfort were observed. The body temperature was measured with a Pocket Infrared Thermometer (Braintree Scientific, Inc., Braintree, MA) at each observation, and the body weight was recorded at each observation. When an animal was found dead at the time of observation, the time of death was estimated to be in the halfway of the last two observation times. When animals were lethargic and cold at the time of observation, the animals were euthanized by CO2 asphyxiation. The mouse survival was monitored for 2 weeks."}}, "data": [{"substance": "polymyxin B [PMB]", "values": [{"measurement": "cell membrane morphology by SEM", "setting": "J774a.1 macrophages", "value": "deformed membrane morphology"}, {"measurement": "mortality", "setting": "C57BL/6 male mice", "value": "resulted in mortality"}, {"measurement": "protection of challenged animals", "setting": "LPS-induced sepsis", "value": "did not protect the challenged animals"}]}]}
